Assay results as given in PubChem BioAssay AID2060500 (Molecular Pharmacology Branch, DTP, NCI, 2025).

Test system: 596521-263-R-J1-PDC complex spheroids, viability % of control
Test: Anticancer human tumor 596521-263-R-J1-PDC patient-derived soft tissue sarcoma cell line growth inhibition [GQUAD]
Settings: for IC50: curve of first compound; for viability, T/C: stronger effect = lower value
Description: DNA G-quadruplex Stabilizer Agents in Combinations in Complex Spheroids
A high-throughput screen of multi-cell type tumor spheroids was designed to identify active combinations of DNA G-quadruplex stabilizer agents and targeted small molecules. Complex spheroids include a stromal component modeled by human endothelial cells (HUVEC) and fibroblasts modeled by human mesenchymal stem cells (MSCs). The concentration ranges selected for each drug and investigational agent were based upon clinically achievable concentrations if the clinical Cmax of the agent was known.
Compounds. The drugs and investigational agents: pidnarulex (CX-5461; NSC782164), APTO-253 (NSC789042), BRACO-19 (NSC847499), peposertib (NSC802822), ceralasertib (NSC780249), elimusertib (NSC800525), camonsertib (NSC841442), AZD-1390 (NSC803789), olaparib (NSC753686), talazoparib (NSC767125), ART-558 (NSC835418), sotorasib (NSC818433), MRTX-1133 (NSC836407), SN-38 (NSC673596), topotecan (NSC609699), etoposide (NSC141540), doxorubicin (NSC123127), gemcitabine (NSC613327), 5-fluorouracil (NSC19893), paclitaxel (NSC125973), vemurafenib (NSC761431), panobinostat (NSC761190), R-306465 (JNJ-16241199; NSC773264), adavosertib (NSC754352), TP-3654 (NSC805149), carboplatin (NSC241240), KSQ-4279 (NSC840948), and staurosporine (NSC755774) were obtained from the National Cancer Institute (NCI) Developmental Therapeutics Program Chemical Repository (34). The FDA-approved anticancer drug set is available from the NCI Developmental Therapeutics Program. […] The stock solutions were prepared in dimethyl sulfoxide (DMSO, Sigma-Aldrich, St. Louis, MO, cat. D2650) at 800-fold the tested concentration and stored at -70 degrees C prior to their use. All drugs and investigational agents were tested over a range starting from a high concentration at or near the clinical Cmax and decreasing in half-log increments. If the clinical Cmax for an agent had not been determined, the highest concentration tested was 10 microM.
2.3 Cell Culture. All cells were maintained in an incubator at 37 degrees C and 5% CO2 with 95% humidity. The PDC lines were cultured according to standard operating procedures established by the NCI PDMR. All PDCs were thawed and cultured in Matrigel-coated flasks prepared with a working solution of 1X Ham's F-12 nutrient mix, without supplementation (Invitrogen, cat. 11765054), 100 U/mL penicillin-streptomycin (Invitrogen, cat. 15140122), and 2.5% Matrigel (Corning Inc., cat. 354248) for the first three passages. The 857933-349-R-J2-PDC line was cultured in 6C/Colon 1B media, which includes advanced DMEM/F-12 (Thermo Fisher Scientific, cat. 12634028), 10 mM HEPES (Thermo Fisher Scientific, cat. 15630080), 1X GlutaMAX supplement (Thermo Fisher Scientific, cat. 35050061), 0.1 mg/mL primocin (InvivoGen, cat. ant-pm-2), 10% defined fetal bovine serum, heat inactivated (HyClone Laboratories Inc., cat. SH30070.03HI), 50% L-WRN conditioned media (ATCC, cat. CRL-3276), 1.25 mM N-Acetyl-L-cysteine (Sigma-Aldrich, cat. A9165), 10 mM nicotinamide (Sigma-Aldrich, cat. N0636), 1X B-27 supplement (Thermo Fisher Scientific, cat. 17504044), 1X N-2 supplement (Thermo Fisher Scientific, cat. 17502048), 10 microM Y-27632 dihydrochloride (Tocris Bioscience, cat. 1254), and 50 ng/mL human EGF recombinant protein (Thermo Fisher Scientific, cat. PHG0311). The 485176-168-R4-J1-PDC line was cultured in Panc media, which includes all 6C/Colon 1B media components plus 100 ng/mL human FGF-10 (Thermo Fisher Scientific, cat. 100-26), 500 nM SB-431542 (Selleckchem, cat. S1067), and gastrin (Tocris, cat. 3006).
[…]

[1] = second compound 0.0316 µM, first compound 0.000999 µM
[2] = second compound 0.0316 µM, first compound 0.00316 µM
[3] = second compound 0.0316 µM, first compound 0.00999 µM
[4] = second compound 0.0316 µM, first compound 0.0316 µM
[5] = second compound 0.0316 µM, first compound 0.0999 µM
[6] = second compound 0.0316 µM, first compound 0.316 µM
[7] = second compound 0.1 µM, first compound 0.000999 µM
[8] = second compound 0.1 µM, first compound 0.00316 µM
[9] = second compound 0.1 µM, first compound 0.00999 µM
[10] = second compound 0.1 µM, first compound 0.0316 µM
[11] = second compound 0.1 µM, first compound 0.0999 µM
[12] = second compound 0.1 µM, first compound 0.316 µM
[13] = second compound 0.316 µM, first compound 0.000999 µM
[14] = second compound 0.316 µM, first compound 0.00316 µM
[15] = second compound 0.316 µM, first compound 0.00999 µM
[16] = second compound 0.316 µM, first compound 0.0316 µM
[17] = second compound 0.316 µM, first compound 0.0999 µM
[18] = second compound 0.316 µM, first compound 0.316 µM
[19] = second compound 1 µM, first compound 0.000999 µM
[20] = second compound 1 µM, first compound 0.00316 µM
[21] = second compound 1 µM, first compound 0.00999 µM
[22] = second compound 1 µM, first compound 0.0316 µM
[23] = second compound 1 µM, first compound 0.0999 µM
[24] = second compound 1 µM, first compound 0.316 µM
[25] = second compound 3.16 µM, first compound 0.000999 µM
[26] = second compound 3.16 µM, first compound 0.00316 µM
[27] = second compound 3.16 µM, first compound 0.00999 µM
[28] = second compound 3.16 µM, first compound 0.0316 µM
[29] = second compound 3.16 µM, first compound 0.0999 µM
[30] = second compound 3.16 µM, first compound 0.316 µM
[31] = second compound 10 µM, first compound 0.000999 µM
[32] = second compound 10 µM, first compound 0.00316 µM
[33] = second compound 10 µM, first compound 0.00999 µM
[34] = second compound 10 µM, first compound 0.0316 µM
[35] = second compound 10 µM, first compound 0.0999 µM
[36] = second compound 10 µM, first compound 0.316 µM
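Also: spheroids exposed to drugs for 7 days before viability reading.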

Work on `CC[C@@]1(O)C(=O)OCc2c1cc1n(c2=O)Cc2cc3c(CN(C)C)c(O)ccc3nc2-1` + CN(C)c1ccc(Nc2c3ccc(NC(=O)CCN4CCCC4)cc3nc3cc(NC(=O)CCN4CCCC4)ccc23)cc1 yielded an IC50 (second compound 0.0316 µM) greater than 316 nM, an IC50 (second compound 0.1 µM) of 161 nM and an IC50 (second compound 0.316 µM) greater than 316 nM. For the same compound, the IC50 (second compound 1 µM) was greater than 316 nM, the IC50 (second compound 3.16 µM) was greater than 316 nM and the IC50 (second compound 10 µM) was 76.9 nM. For the same compound, the viability, T/C [1] was 99.7%, the viability, T/C [2] was 108% and the viability, T/C [3] was 91.9%. The viability, T/C [4] was 62.4%, the viability, T/C [5] was 63.8% and the viability, T/C [6] was 53.2%. It also gave a viability, T/C [7] of 114%, a viability, T/C [8] of 105% and a viability, T/C [9] of 103%. The viability, T/C [10] was 65.3%, the viability, T/C [11] was 54.3% and the viability, T/C [12] was 46.2%. For the same compound, the viability, T/C [13] was 94.5%, the viability, T/C [14] was 97.9% and the viability, T/C [15] was 83.3%. It also gave a viability, T/C [16] of 74.1%, a viability, T/C [17] of 59.4% and a viability, T/C [18] of 53.6%. For the same compound, the viability, T/C [19] was 92%, the viability, T/C [20] was 92.9% and the viability, T/C [21] was 86.1%. The viability, T/C [22] was 73.1%, the viability, T/C [23] was 57.3% and the viability, T/C [24] was 54.2%. It also gave a viability, T/C [25] of 95.8%, a viability, T/C [26] of 88.8% and a viability, T/C [27] of 84.1%. It also gave a viability, T/C [28] of 61.1%, a viability, T/C [29] of 59.1% and a viability, T/C [30] of 52.5%. It also gave a viability, T/C [31] of 58.5%, a viability, T/C [32] of 70.6% and a viability, T/C [33] of 54.6%. The viability, T/C [34] was 50.1%, the viability, T/C [35] was 52% and the viability, T/C [36] was 41.4%.
In the case of `CCc1c2c(nc3ccc(O)cc13)-c1cc3c(c(=O)n1C2)COC(=O)[C@]3(O)CC` + CN(C)c1ccc(Nc2c3ccc(NC(=O)CCN4CCCC4)cc3nc3cc(NC(=O)CCN4CCCC4)ccc23)cc1, the IC50 (second compound 0.0316 µM) is reported as 5.08 nM, the IC50 (second compound 0.1 µM) is reported as 4.06 nM and the IC50 (second compound 0.316 µM) is reported as 3.51 nM. The IC50 (second compound 1 µM) was 7.44 nM, the IC50 (second compound 3.16 µM) was 5.64 nM and the IC50 (second compound 10 µM) was 3.75 nM. The viability, T/C [1] was 66.2%, the viability, T/C [2] was 54.6% and the viability, T/C [3] was 43.2%. For the same compound, the viability, T/C [4] was 28.7%, the viability, T/C [5] was 16.5% and the viability, T/C [6] was 7.38%. It also gave a viability, T/C [7] of 60.4%, a viability, T/C [8] of 51.8% and a viability, T/C [9] of 41.3%. It also gave a viability, T/C [10] of 28.5%, a viability, T/C [11] of 15.6% and a viability, T/C [12] of 9.53%. It also gave a viability, T/C [13] of 61.8%, a viability, T/C [14] of 50.7% and a viability, T/C [15] of 39.1%. It also gave a viability, T/C [16] of 28.9%, a viability, T/C [17] of 15.4% and a viability, T/C [18] of 8.17%. The viability, T/C [19] was 61.1%, the viability, T/C [20] was 57% and the viability, T/C [21] was 47.5%. It also gave a viability, T/C [22] of 32.3%, a viability, T/C [23] of 16.7% and a viability, T/C [24] of 7.43%. It also gave a viability, T/C [25] of 58.6%, a viability, T/C [26] of 54.7% and a viability, T/C [27] of 46.6%. The viability, T/C [28] was 31.1%, the viability, T/C [29] was 21.4% and the viability, T/C [30] was 9.32%. The viability, T/C [31] was 52.9%, the viability, T/C [32] was 52.7% and the viability, T/C [33] was 44%. The viability, T/C [34] was 32.6%, the viability, T/C [35] was 20.9% and the viability, T/C [36] was 9.92%.
